Earlier results on one substance are cited in patent US10028930B2, “Compositions capable of enhancing thermogenesis and uses thereof” (Specialty Nutrition Group, Inc., priority 2013, dated 2018).

For series [1], the system named is uncoupling proteins (UCP-1, UCP-2, UCP-3). The settings on record: rodents, brown and white adipose tissue.
For series [2] the following is noted: NAFLD subjects, compared to placebo.

With Fucoxanthin, in series [1], the “expression of uncoupling proteins (UCP-1, UCP-2, UCP-3)” value is recorded as “inducing the expression”. Further, the “resting energy expenditure (REE)” value in series [2] was “significantly increased”.
